Reference: paper PMC3724450 (Nature communications, 2013)

System: HCC4017
Test: Cell viability assay, patient matched pair
Conditions: patient matched cancer vs normal lines

COC(=O)CNC(=O)C(=O)OC [D1070, dimethyloxalylglycine]
selectivity for cancer vs. normal patient matched cells: only five-fold selectivity for cancer
